Where two headings read alike, the source gives them in different places.
What was measured:
[1] = target: SHP-2 enzyme (Met1-Leu525) (Homo sapiens (Human), UniProt Q06124); assay: SHP2 inhibition enzymatic assay; type: biochemical; conditions: 0.5 nM SHP-2 activated by 500 nM IRS1 peptide, 75 μM DiFMUP substrate; read-out: SHP2wt-IC50
Outline: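 SHP-2 (Met1-Leu525), 0.5 nM, activated with 500 nM IRS1 bis-phosphopeptide, preincubated 30 min with compounds in HEPES pH 7.2 buffer with 5 mM DTT. 75 μM DiFMUP added for 30 min at room temperature, stopped with bpV; fluorescence read. IC50 from four-parameter logistic fit of % inhibition.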

[2] = test system: ERK phosphorylation in KYSE-520 cells; assay: Phospho-ERK cellular assay; type: cell-based; conditions: KYSE-520 cells, 2 h at 37° C., phospho-ERK1/2 (Thr202/Tyr204) TR-FRET, read-out: PERK IC50
Outline: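 TR-FRET read-out of ERK1/2 Thr202/Tyr204 phosphorylation was taken after overnight antibody incubation at room temperature. Before that, KYSE-520 cells were treated 2 h at 37 °C with compound dilutions and lysed 30 min. Percent inhibition relative to vehicle and cell-free wells was fitted four-parametrically to give IC50.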

Chain of SHP-2 enzyme (Met1-Leu525) (Q06124 1-525): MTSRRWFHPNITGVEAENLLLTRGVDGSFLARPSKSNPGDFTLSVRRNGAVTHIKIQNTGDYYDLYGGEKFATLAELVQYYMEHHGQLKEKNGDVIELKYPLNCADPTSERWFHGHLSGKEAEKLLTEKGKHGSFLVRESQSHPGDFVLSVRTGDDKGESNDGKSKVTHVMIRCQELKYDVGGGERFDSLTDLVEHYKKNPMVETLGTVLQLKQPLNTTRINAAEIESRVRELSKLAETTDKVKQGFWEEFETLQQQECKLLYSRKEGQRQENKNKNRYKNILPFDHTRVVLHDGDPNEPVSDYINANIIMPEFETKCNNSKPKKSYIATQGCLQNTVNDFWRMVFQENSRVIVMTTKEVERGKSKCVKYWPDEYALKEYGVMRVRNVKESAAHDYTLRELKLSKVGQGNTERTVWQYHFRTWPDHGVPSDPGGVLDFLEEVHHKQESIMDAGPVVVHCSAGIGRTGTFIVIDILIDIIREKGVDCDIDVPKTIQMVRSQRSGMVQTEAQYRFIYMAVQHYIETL

| IC50 [1] | IC50 ([2]; Homo sapiens, KYSE-520, 2 h) | IC50 [2] | SMILES |
| --- | --- | --- | --- |
| < 500 nM | < 1000 nM | – | NC[C@]1(c2ccccc2F)[C@@H]2CCN(c3cnc4c(-c5ccc6nn(CC(N)=O)cc6c5Cl)n[nH]c4n3)C[C@@H]21 [Example 324, 2-(5-(6-((1S,6R,7R)-7-(aminomethyl)-7-(2-fluorophenyl)-3-azabicyclo[4.1.0]heptan-3-yl)-1H-pyrazolo[3,4-b]pyrazin-3-yl)-4-chloro-2H-indazol-2-yl)acetamide] |
| < 500 nM | < 1000 nM | – | CC(C)n1ncc2c(Cl)c(-c3n[nH]c4nc(N5CC[C@@H]6[C@H](C5)[C@@]6(CN)c5ccccc5F)cnc34)ccc21 [Example 325, ((1S,6R,7R)-3-(3-(4-chloro-1-isopropyl-1H-indazol-5-yl)-1H-pyrazolo[3,4-b]pyrazin-6-yl)-7-(2-fluorophenyl)-3-azabicyclo[4.1.0]heptan-7-yl)methanamine] |
| < 500 nM | < 1000 nM | – | NC[C@]1(c2ccccc2F)[C@@H]2CCN(c3cnc4c(-c5ccc(N6CCCC6=O)cc5Cl)n[nH]c4n3)C[C@@H]21 [Example 326, 1-(4-(6-((1S,6R,7R)-7-(aminomethyl)-7-(2-fluorophenyl)-3-azabicyclo[4.1.0]heptan-3-yl)-1H-pyrazolo[3,4-b]pyrazin-3-yl)-3-chlorophenyl)pyrrolidin-2-one] |
| < 500 nM | < 1000 nM | – | Cn1cnc2c(Cl)c(-c3n[nH]c4nc(N5CC[C@@H]6[C@H](C5)[C@@]6(CN)c5ccccc5F)cnc34)ccc21 [Example 329, ((1S,6R,7R)-3-(3-(4-chloro-1-methyl-1H-benzo[d]imidazol-5-yl)-1H-pyrazolo[3,4-b]pyrazin-6-yl)-7-(2-fluorophenyl)-3-azabicyclo[4.1.0]heptan-7-yl)methanamine] |
| < 500 nM | < 1000 nM | – | NC[C@]1(c2ccccc2F)[C@@H]2CCN(c3cnc4c(-c5ccc(O)cc5F)n[nH]c4n3)C[C@@H]21 [Example 332, 4-(6-((1S,6R,7R)-7-(aminomethyl)-7-(2-fluorophenyl)-3-azabicyclo[4.1.0]heptan-3-yl)-1H-pyrazolo[3,4-b]pyrazin-3-yl)-3-fluorophenol] |
| < 500 nM | < 1000 nM | – | NC[C@]1(c2ccccc2F)[C@@H]2CCN(c3cnc4c(-c5ccc6nn(C(F)F)cc6c5Cl)n[nH]c4n3)C[C@@H]21 [Example 335, ((1S,6R,7R)-3-(3-(4-chloro-2-(difluoromethyl)-2H-indazol-5-yl)-1H-pyrazolo[3,4-b]pyrazin-6-yl)-7-(2-fluorophenyl)-3-azabicyclo[4.1.0]heptan-7-yl)methanamine] |
| < 500 nM | < 1000 nM | – | Cn1ccc2c(Cl)c(-c3n[nH]c4nc(N5CC[C@@H]6[C@H](C5)[C@@]6(CN)c5ccccc5F)cnc34)ccc2c1=O [Example 336, 6-(6-((1S,6R,7R)-7-(aminomethyl)-7-(2-fluorophenyl)-3-azabicyclo[4.1.0]heptan-3-yl)-1H-pyrazolo[3,4-b]pyrazin-3-yl)-5-chloro-2-methylisoquinolin-1(2H)-one] |
| < 500 nM | < 1000 nM | – | Cn1cnc2ccc(-c3n[nH]c4nc(N5CC[C@@H]6[C@H](C5)[C@@]6(CN)c5ccccc5F)cnc34)c(Cl)c21 [Example 338, ((1S,6R,7R)-3-(3-(7-chloro-1-methyl-1H-benzo[d]imidazol-6-yl)-1H-pyrazolo[3,4-b]pyrazin-6-yl)-7-(2-fluorophenyl)-3-azabicyclo[4.1.0]heptan-7-yl)methanamine] |
| < 500 nM | – | < 1000 nM | NC[C@]1(c2ccccc2F)[C@@H]2CCN(c3cnc4c(-c5ccc6c(=O)[nH]ncc6c5Cl)n[nH]c4n3)C[C@@H]21 [Example 340] |
| < 500 nM | > 5000 nM | – | NC[C@]1(c2ccccc2F)[C@@H]2CCN(c3cnc4c(-c5ccc(O)nc5C(F)(F)F)n[nH]c4n3)C[C@@H]21 [Example 345, 5-(6-((1S,6R,7R)-7-(aminomethyl)-7-(2-fluorophenyl)-3-azabicyclo[4.1.0]heptan-3-yl)-1H-pyrazolo[3,4-b]pyrazin-3-yl)-6-(trifluoromethyl)pyridin-2-ol] |
| < 500 nM | > 5000 nM | – | NC[C@]1(c2ccccc2F)[C@@H]2CCN(c3cnc4c(-c5ccc(S(N)(=O)=O)cc5Cl)n[nH]c4n3)C[C@@H]21 [Example 346, 4-(6-((1S,6R,7R)-7-(aminomethyl)-7-(2-fluorophenyl)-3-azabicyclo[4.1.0]heptan-3-yl)-1H-pyrazolo[3,4-b]pyrazin-3-yl)-3-chlorobenzenesulfonamide] |

More lines, now with the values behind:

| SMILES | IC50 [1] | IC50 ([2]; Homo sapiens, KYSE-520, 2 h) | IC50 [2] |
| --- | --- | --- | --- |
| NC[C@]1(c2ccccc2F)[C@@H]2CCN(c3cnc4c(-c5ccc(-c6cc(F)cc(F)c6)cc5Cl)n[nH]c4n3)C[C@@H]21 [Example 323, ((1S,6R,7R)-3-(3-(3-chloro-3′,5′-difluoro-[1,1′-biphenyl]-4-yl)-1H-pyrazolo[3,4-b]pyrazin-6-yl)-7-(2-fluorophenyl)-3-azabicyclo[4.1.0]heptan-7-yl)methanamine] | < 500 nM | < 1000 nM | – |
| NC[C@]1(c2ccccc2F)[C@@H]2CCN(c3cnc4c(-c5ccc6ncnn6c5)n[nH]c4n3)C[C@@H]21 [Example 327, ((1S,6R,7R)-3-(3-([1,2,4]triazolo[1,5-a]pyridin-6-yl)-1H-pyrazolo[3,4-b]pyrazin-6-yl)-7-(2-fluorophenyl)-3-azabicyclo[4.1.0]heptan-7-yl)methanamine] | < 500 nM | < 1000 nM | – |
| NC[C@]1(c2ccccc2F)[C@@H]2CCN(c3cnc4c(-c5cc(F)cc(F)c5)n[nH]c4n3)C[C@@H]21 [Example 330, ((1S,6R,7R)-3-(3-(3,5-difluorophenyl)-1H-pyrazolo[3,4-b]pyrazin-6-yl)-7-(2-fluorophenyl)-3-azabicyclo[4.1.0]heptan-7-yl)methanamine] | < 500 nM | < 1000 nM | – |
| NC[C@]1(c2ccccc2F)[C@@H]2CCN(c3cnc4c(-c5ccc(O)c(F)c5)n[nH]c4n3)C[C@@H]21 [Example 331, 4-(6-((1S,6R,7R)-7-(aminomethyl)-7-(2-fluorophenyl)-3-azabicyclo[4.1.0]heptan-3-yl)-1H-pyrazolo[3,4-b]pyrazin-3-yl)-2-fluorophenol] | < 500 nM | < 1000 nM | – |
| NC[C@]1(c2ccccc2F)[C@@H]2CCN(c3cnc4c(-c5ccn6ncnc6c5)n[nH]c4n3)C[C@@H]21 [Example 333, ((1S,6R,7R)-3-(3-([1,2,4]triazolo[1,5-a]pyridin-7-yl)-1H-pyrazolo[3,4-b]pyrazin-6-yl)-7-(2-fluorophenyl)-3-azabicyclo[4.1.0]heptan-7-yl)methanamine] | < 500 nM | < 1000 nM | – |
| NC[C@]1(c2ccccc2F)[C@@H]2CCN(c3cnc4c(C#Cc5ccccc5F)n[nH]c4n3)C[C@@H]21 [Example 334, ((1S,6R,7R)-7-(2-fluorophenyl)-3-(3-((2-fluorophenyl)ethynyl)-1H-pyrazolo[3,4-b]pyrazin-6-yl)-3-azabicyclo[4.1.0]heptan-7-yl)methanamine] | < 500 nM | < 1000 nM | – |
| Cc1nc2cc(-c3n[nH]c4nc(N5CC[C@@H]6[C@H](C5)[C@@]6(CN)c5ccccc5F)cnc34)ccc2[nH]1 [Example 337, ((1S,6R,7R)-7-(2-fluorophenyl)-3-(3-(2-methyl-1H-benzo[d]imidazol-5-yl)-1H-pyrazolo[3,4-b]pyrazin-6-yl)-3-azabicyclo[4.1.0]heptan-7-yl)methanamine] | < 500 nM | < 1000 nM | – |
| Cn1c(=O)oc2ccc(-c3n[nH]c4nc(N5CC[C@@H]6[C@H](C5)[C@@]6(CN)c5ccccc5F)cnc34)cc21 [Example 341, 5-(6-((1S,6R,7R)-7-(aminomethyl)-7-(2-fluorophenyl)-3-azabicyclo[4.1.0]heptan-3-yl)-1H-pyrazolo[3,4-b]pyrazin-3-yl)-3-methylbenzo[d]oxazol-2(3H)-one] | < 500 nM | < 1000 nM | – |
| Cn1c(N2CC[C@@H]3[C@H](C2)[C@@]3(CN)c2ccccc2F)nc2[nH]nc(-c3ccc(C(N)=O)c4ncccc34)c2c1=O [Example 343, 5-(6-((1S,6R,7R)-7-(aminomethyl)-7-(2-fluorophenyl)-3-azabicyclo[4.1.0]heptan-3-yl)-5-methyl-4-oxo-4,5-dihydro-1H-pyrazolo[3,4-d]pyrimidin-3-yl)quinoline-8-carboxamide] | < 500 nM | > 5000 nM | – |
| Cn1cc2c(Cl)c(-c3n[nH]c4nc(N5CC[C@@H]6[C@H](C5)[C@@]6(CN)c5cc(F)cc(F)c5)n(C)c(=O)c34)ccc2n1 [Example 344, 6-((1S,6R,7R)-7-(aminomethyl)-7-(3,5-difluorophenyl)-3-azabicyclo[4.1.0]heptan-3-yl)-3-(4-chloro-2-methyl-2H-indazol-5-yl)-5-methyl-1,5-dihydro-4H-pyrazolo[3,4-d]pyrimidin-4-one] | < 500 nM | < 1000 nM | – |
| Cn1cc(-c2n[nH]c3nc(N4CC[C@@H]5[C@H](C4)[C@@]5(CN)c4ccccc4F)cnc23)cn1 [Example 347, ((1S,6R,7R)-7-(2-fluorophenyl)-3-(3-(1-methyl-1H-pyrazol-4-yl)-1H-pyrazolo[3,4-b]pyrazin-6-yl)-3-azabicyclo[4.1.0]heptan-7-yl)methanamine] | < 500 nM | > 5000 nM | – |
| Cc1c(-c2n[nH]c3nc(N4CC[C@@H]5[C@H](C4)[C@@]5(CN)c4ccccc4F)cnc23)cnn1C [Example 348, ((1S,6R,7R)-3-(3-(1,5-dimethyl-1H-pyrazol-4-yl)-1H-pyrazolo[3,4-b]pyrazin-6-yl)-7-(2-fluorophenyl)-3-azabicyclo[4.1.0]heptan-7-yl)methanamine] | < 500 nM | < 1000 nM | – |
